This note sets out measurements from patent US20220267753A1, “RATIONAL THERAPEUTIC TARGETING OF ONCOGENIC IMMUNE SIGNALING STATES IN MYELOID MALIGNANCIES VIA THE UBIQUITIN CONJUGATING ENZYME UBE2N” (CHILDREN'S HOSPITAL MEDICAL CENTER, priority 2019, published 2022).

Assay [1] has as its system AML cells (THP-1, MOLM-13, OCI-AML2, OCI-AML3, MDSL). The assay is described as follows: Colony formation (clonogenic) assay in AML/MDS cell lines. It is filed as cell-based, human. The conditions noted are these: 2 μM. As to the method: In order to determine viability after UBE2N knockdown or inhibition, 1×10^6 AML cells were washed with PBS and mixed with pre-diluted APC-conjugated Annexin V (BD Pharmigen, Franklin Lakes, N.J.) and Propidium iodide (PI) (Invitrogen ThermoFisher 00-6990-42, Waltham, Mass.). Cells were stained at room temperature for 15 minutes and suspended in 0.5 ml of Annexin V incubation buffer (eBiosciences 88-8007-74, San Diego, Calif.) for analysis using a BD FACS Canto System (BD Biosciences, San Jose, Calif.). For UBE2N knockdown experiments, PI−/GFP+ cells were sorted using a MoFlo XDP sorter (Beckman Coulter, Brea, Calif.) and plated in methylcellulose (StemCell Technologies H4236, Vancouver, CA) at 1000 cells/ml in 35 mm culture dishes. For UBE2N inhibition experiments, cell lines were plated in methycellulose (StemCell Technologies H4236, Vancouver, CA) at the indicated concentrations of inhibitor. Cells were incubated at 37° C. and 5% CO2. Colonies were scored after 7 days in culture. For UBE2N or UBE2N C87S overexpression experiments, MOLM-13 cells were transduced with lentivectors overexpressing UBE2N wild type or mutant in the presence of polybrene (8 μg/ml). […] Colonies were scored at 7 days. […] Colonies were manually scored at 14-16 days after plating or counted with STEMVision (StemCell Technologies, Vancouver, CA).

In assay [2] the test system is patient-derived AML cells. The assay is described as follows: Viability (MTS) of patient-derived AML samples (PDX AMLs). It is filed as cell-based, human. Particulars: hierarchical clustering, MTS 24 h. The protocol:
AML cell lines (5×10^3 cells/well) were seeded in 96-well plates and grown for 24 to 96 h in serum (10%)-containing medium in the presence or absence of inhibitors at the indicated concentrations. Proliferation was analyzed by means of an MTS assay using the CellTiter 96 Aqueous One Solution Cell Proliferation Assay (Promega, Madison, Wis., USA), according to the manufacturer's instructions. Data are mean with standard deviation from three independent experiments in technical triplicates. For the screening of 160 compounds from the UC library, the cell metabolic activity was assessed at 24 hours of treatment of MOLM-13 cells. Top 15 candidates were re-screened at 2 μM, and the cell metabolic activity was determined at 24 hours of treatment. In certain experiments, cell viability was determined by staining the cells with trypan blue at a 1/2 dilution and counting total number of viable cells upon treatment with UC-764864 or DMSO control. The cells were counted daily for 4 days using an automated cell counter (Countess II FL from Life Technologies). […] UC-764864 was added at the indicated concentrations and cells were incubated with drug for 3 days, at which point cell viability was measured by MTS according to manufacturer's instructions. […]

Structures are written as SMILES.

With `CCc1ccc(C(=O)C=CSc2nc3ccc(C)cc3[nH]2)cc1` [UC-764864, 1-(4-ethylphenyl)-3-[(6-methyl-1H-benzimidazol-2-yl)sulfanyl]prop-2-en-1-one], the “reduction in colony formation vs vehicle” value in assay [1] was 20-95%. In assay [2] (20 of 26 PDX AMLs), the “sensitivity class of the other 20 PDX AMLs” value is “resistant”. The “sensitivity class of PDX AMLs JM1, JM7, JM18, JM26, JM30, JM40” value in assay [2] (six of 26 PDX AMLs) was “sensitive”.
